This is an account of results in patent publication US20250235545A1, “POLYPEPTIDE CONJUGATE AND USE THEREOF” (SHANGHAI CHIXI BIOMEDICAL TECHNOLOGY CO., LTD, priority 2024, published 2025).

The subject of data set [1] is A2780 (ovarian cancer). In words: cells. It counts as cell-based. As to conditions: CCK8, 48 h; for IC50 A2780 (ovarian cancer): Table 1; for IC50 Ovarian cancer tissue (A2780): Table 6. The protocol: (§1) Different types of cells were cultured with complete media (RPMI1640 (DMEM high sugar medium)+10% fetal bovine serum+1XP/S+sodium pyruvate 1 mM solution) in an incubator at 37° C. and 5% CO2 until the cells grew to a sufficient number, and the cells were collected, centrifuged at 1,000 g for 5 min, resuspended with an appropriate volume of a 10% RMPI1640 (DMEM high sugar medium) medium and counted. In a 96-well culture plate, 100 μL of cell culture fluid containing different concentrations of drugs was added, control wells (0.1% DMSO) with only corresponding drug solvents without drugs, as well as blank wells (Blank) with only the medium but without cells were set, and three parallel wells were set in each group. After that, the cells after cell counting were inoculated onto 96-well culture plates, with 100 μL of cell suspension per well, and an inoculation concentration of the cells was 5,000 cells (100 μL)/well. The plates were then cultured in a CO2 (5%) incubator at 37° C. for 48 h. After 48 h, 10 μL of a cell proliferation staining reagent (CCK8) was added to each well, the plates were incubated in a cell incubator for around 2 h, and an absorbance at 450 nm was detected.
(§2) Cell survival rates and median inhibitory concentrations of the drugs on the cells were calculated.
as §1, with “serum+1×P/S+sodium” for “serum+1XP/S+sodium”, “adjusted to an appropriate density.” for “counted.”
(§3) Cell survival rates and median inhibitory concentrations (IC50) of the drugs on the cells were calculated.

Data set [2] concerns A549 (non-small cell lung cancer). As to the kind of experiment: cells. The conditions noted are these: CCK8, 48 h; for IC50 A549 (non-small cell lung cancer): Table 1; for IC50 Non-small cell lung cancer tissue (A549): Table 6. The format is cell-based. The protocol:
as §1, §2
as §1, with “serum+1×P/S+sodium” for “serum+1XP/S+sodium”, “adjusted to an appropriate density.” for “counted.”
as §3

The subject of data set [3] is SJSA-1 (sarcoma tissue). In words: cells. It counts as cell-based. The conditions noted are these: CCK8, 48 h; for IC50 SJSA-1 (sarcoma tissue): Table 1; for IC50 Sarcoma tissue (SJSA-1): Table 6. The method, then: as §1, §2
as §1, with “serum+1×P/S+sodium” for “serum+1XP/S+sodium”, “adjusted to an appropriate density.” for “counted.”
as §3

The test system of data set [4] is SKBR3 (breast cancer tissue). As to the kind of experiment: cells. It counts as cell-based. As to conditions: CCK8, 48 h; for IC50 SKBR3 (breast cancer tissue): Table 1; for IC50 Breast cancer tissue (SKBR3): Table 6. The method, then: as §1, §2
as §1, with “serum+1×P/S+sodium” for “serum+1XP/S+sodium”, “adjusted to an appropriate density.” for “counted.”
as §3

Data set [5] relates to colo320 (colorectal cancer tissue). As to the kind of experiment: cells. The format is cell-based. The conditions noted are these: CCK8, 48 h; Table 6. The method, then: as §1, with “serum+1×P/S+sodium” for “serum+1XP/S+sodium”, “adjusted to an appropriate density.” for “counted.”
as §3

Data set [6] relates to sarcoma SJSA-1 tumor model. As to conditions: 5 mg/kg once a week for three weeks. The protocol: Test objective: To investigate the antitumor efficacy of the above compounds in an animal tumor model of sarcoma SJSA-1.
(§4) Test drug: Polypeptide conjugate, Irinotecan, Belotecan and normal saline control group.
(§5) Test animals: 6-8 weeks old BALB/c mice, all female.
(§6) SJSA-1 cells were purchased from ATCC and cultured in a DMEM medium containing 10% fetal bovine serum at 37° C. in 5% CO2. Passaging was performed every three days, and cells within 15 generations were used. 2×10^7 corresponding cells were injected into right chests of nude mice subcutaneously. After a volume of the tumors reached at least 100 mm^3, the mice were grouped randomly, with three mice in each group. Then treatment was started, and the day when the treatment was started was the first day. […] The control group was administered with normal saline. Administration was performed once a week for three weeks.
as §6

The test system of data set [7] is colo320 colorectal cancer tumor model. As to conditions: 5 mg/kg once a week for four weeks. The protocol:
Test objective: To investigate the antitumor efficacy of the above compounds in an animal tumor model of colo320 colorectal cancer.
as §4, §5
Passaging was performed every three days, and cells within 15 generations were used. 7.5×10^6 corresponding cells were injected into right chests of nude mice subcutaneously. After a volume of the tumors reached at least 120 mm^3, the mice were grouped randomly, with three mice in each group. Then treatment was started, and the day when the treatment was started was the first day. […] The control group was administered with normal saline. Administration was performed once a week for four weeks.

The nature of data set [8]: MTD determination in mice (Examples 27, 36, 44). The format is in vivo. As to conditions: mice, monitored for 14 d. The source says: Test animals: 6-8 weeks old mice, all female; mice were grouped randomly, with six mice in each group, administered with drugs at different concentration gradients separately and monitored for 14 d. A mouse was euthanized at a loss of 20% of its initial weight and deemed to have died of poisoning.

≈ marks a conversion by molar mass, not a printed value. Like-named read-outs stand apart in the source and are kept apart here.

As to `CC[C@@]1(O)C(=O)OCc2c1cc1n(c2=O)Cc2c-1nc1ccccc1c2CCNC1CC1` [D6], in data set [1], the “IC50 A2780 (ovarian cancer)” value was 2.9 ng/mL (≈ 6.72 nM) and the “IC50 Ovarian cancer tissue (A2780)” value was found to be 2.9 ng/mL (≈ 6.72 nM). For the same molecule, in data set [2], the “IC50 A549 (non-small cell lung cancer)” value amounted to 2.5 ng/mL (≈ 5.79 nM) and the “IC50 Non-small cell lung cancer tissue (A549)” value came out at 2.5 ng/mL (≈ 5.79 nM). For the same molecule, in data set [3], the “IC50 SJSA-1 (sarcoma tissue)” value was determined as 1.8 ng/mL (≈ 4.17 nM) and the “IC50 Sarcoma tissue (SJSA-1)” value is 1.8 ng/mL (≈ 4.17 nM). For the same molecule, in data set [4], the “IC50 SKBR3 (breast cancer tissue)” value was 3.8 ng/mL (≈ 8.81 nM) and the “IC50 Breast cancer tissue (SKBR3)” value was found to be 3.8 ng/mL (≈ 8.81 nM). In addition, the “IC50 Colorectal cancer tissue (colo320)” value in data set [5] turned out to be 4.8 ng/mL (≈ 11.1 nM). Further, in data set [6] (Table 2), the “Mouse weight (%)” value is “+4%”, the “SJSA-1 (sarcoma tissue) mean tumor volume (mm^3)” value amounted to 961.3 mm^3 and the “SJSA-1 (sarcoma) Growth rate (%)” value stood at 828.71%. Also, in data set [6] (Table 7), the “Mouse weight (%)” value is on record as “+4%”, the “SJSA-1 (sarcoma tissue) growth rate (%)” value was 831.80% and the “SJSA-1 (sarcoma tissue) mean tumor volume (mm^3)” value is listed as 961.3 mm^3. Moreover, in data set [7] (Table 3), the “Mouse weight (%)” value is −4%, the “colo320 (colorectal cancer cell) growth rate (%)” value (shortened to “colo320 … (%)”) is 715.73% and the “colo320 (colorectal cancer cell) mean tumor volume (mm^3)” value (“colo320 … (mm^3)” for short) was 787.3 mm^3. In data set [7] (Table 8), the “Mouse weight (%)” value is −4%, the “colo320 … (%)” value is 710.84% and the “colo320 … (mm^3)” value is on record as 787.3 mm^3. Also, the MTD in data set [8] (Table 4) is 10 mg/kg. The molecule further came in with an MTD in data set [8] (Table 9) of 10 mg/kg.
In the case of `CC[C@@]1(O)C(=O)OCc2c1cc1n(c2=O)Cc2c-1nc1ccccc1c2CCNC1CCC1` [D7], in data set [1], the “IC50 A2780 (ovarian cancer)” value was 4.3 ng/mL (≈ 9.65 nM) and the “IC50 Ovarian cancer tissue (A2780)” value was 4.3 ng/mL (≈ 9.65 nM). In data set [2], the “IC50 A549 (non-small cell lung cancer)” value is 7.4 ng/mL (≈ 16.6 nM) and the “IC50 Non-small cell lung cancer tissue (A549)” value was found to be 7.4 ng/mL (≈ 16.6 nM). For the same molecule, in data set [3], the “IC50 SJSA-1 (sarcoma tissue)” value was 8.4 ng/mL (≈ 18.9 nM) and the “IC50 Sarcoma tissue (SJSA-1)” value is 8.4 ng/mL (≈ 18.9 nM). In data set [4], the “IC50 SKBR3 (breast cancer tissue)” value was determined as 16 ng/mL (≈ 35.9 nM) and the “IC50 Breast cancer tissue (SKBR3)” value amounted to 16 ng/mL (≈ 35.9 nM). In data set [5], the “IC50 Colorectal cancer tissue (colo320)” value is 17 ng/mL (≈ 38.2 nM). In data set [6] (Table 2), the “Mouse weight (%)” value is −7%, the “SJSA-1 (sarcoma tissue) mean tumor volume (mm^3)” value came to 1369.5 mm^3 and the “SJSA-1 (sarcoma) Growth rate (%)” value was 1185.01%. For the same molecule, in data set [6] (Table 7), the “Mouse weight (%)” value was −7%, the “SJSA-1 (sarcoma tissue) growth rate (%)” value stood at 1185.01% and the “SJSA-1 (sarcoma tissue) mean tumor volume (mm^3)” value stood at 1369.5 mm^3. In addition, in data set [7] (Table 3), the “Mouse weight (%)” value was −8%, the “colo320 … (%)” value came to 1136.64% and the “colo320 … (mm^3)” value is 1258.9 mm^3. For the same molecule, in data set [7] (Table 8), the “Mouse weight (%)” value is reported as −8%, the “colo320 … (%)” value is given as 1136.64% and the “colo320 … (mm^3)” value is 1258.9 mm^3. The molecule further yielded an MTD in data set [8] (Table 4) of 15 mg/kg. This molecule also had an MTD in data set [8] (Table 9) of 15 mg/kg.
